IC50 data for five molecules are collected here from patent US10570149B2, “Tricyclic heterocylic derivatives” (MERCK PATENT GMBH, priority 2016, dated 2020).

Where only a bound is given, the exact number is not on record here.

A word on the IC50: it is the concentration at which inhibition is half-maximal.

For one experiment, the target named is T1, ATR/ATRIP (Homo sapiens, UniProt Q13535).
T1 construct: human ATR, full length, GenBank ID: NM_001184.3; p53: Sf21 insect cells
The experiment is described as follows: ATR/ATRIP kinase assay (TR-FRET, p53 phosphorylation). It is filed as biochemical. The settings on record: Table 1, class symbols; read-out: ATR-ATRIP IC50.

In experiment [1] the test system is phosphorylation of Chk1 (Ser 345) in HT29 colon adenocarcinoma cells. The experiment is described as follows: pCHK1 cellular assay. It is filed as cell-based. The note with it: Homo sapiens, HT-29, Table 1, class symbols, hydroxyurea. The text has this: Chk1 kinase acts downstream of ATR and has a key role in DNA damage checkpoint control. Activation of Chk1 involves phosphorylation of Ser317 and Ser345 (regarded as the preferential target for phosphorylation/activation by ATR) and occurs in response to blocked DNA replication and certain forms of genotoxic stress. Phosphorylation at Ser 345 serves to localize Chk1 to the nucleus following checkpoint activation.
This assay measures a decrease in phosphorylation of Chk1 (Ser 345) in HT29 colon adenocarcinoma cells following treatment with compound and hydroxyurea (which promotes fork stalling because of dNTP depletion) and using an immunocytochemical procedure and high content imaging.
For the assay HT29 cells are plated in culture medium (DMEM high Glucose (no phenol red), 2 mM Glutamax, 1 mM Pyruvate, 10% FCS into Greiner 384 well plates, black, μclear #781090 (2500 cells/well/30 μl) and incubated for at least 20 hours at 37° C., 10% CO2 and 90% rH. Diluted test compounds (1 nM-30 μM final) and hydroxyurea (3 mM final) are added simultaneously and cells are incubated for 4 h at 37° C. After fixation/prmeabilisation with 100% MeOH (−20° C. cold) and permeabilisation with 0.2% Triton X-100 a complete immunocytochemical procedure is performed using a specific anti-pChk1 antibody (Cell Signaling, #2348BF) and fluorescently labelled secondary antibody (Alexa Fluor® 488 goat anti-rabbit F(ab′)2 fragment, Invitrogen A11070) and parallel nuclear staining for cell counting.
The nuclear localised pChk1 signal is detected on an ImageXpress Ultra confocal high content reader and reported as % positive cells (nuclei).

T1 sequence (Q13535 whole entry): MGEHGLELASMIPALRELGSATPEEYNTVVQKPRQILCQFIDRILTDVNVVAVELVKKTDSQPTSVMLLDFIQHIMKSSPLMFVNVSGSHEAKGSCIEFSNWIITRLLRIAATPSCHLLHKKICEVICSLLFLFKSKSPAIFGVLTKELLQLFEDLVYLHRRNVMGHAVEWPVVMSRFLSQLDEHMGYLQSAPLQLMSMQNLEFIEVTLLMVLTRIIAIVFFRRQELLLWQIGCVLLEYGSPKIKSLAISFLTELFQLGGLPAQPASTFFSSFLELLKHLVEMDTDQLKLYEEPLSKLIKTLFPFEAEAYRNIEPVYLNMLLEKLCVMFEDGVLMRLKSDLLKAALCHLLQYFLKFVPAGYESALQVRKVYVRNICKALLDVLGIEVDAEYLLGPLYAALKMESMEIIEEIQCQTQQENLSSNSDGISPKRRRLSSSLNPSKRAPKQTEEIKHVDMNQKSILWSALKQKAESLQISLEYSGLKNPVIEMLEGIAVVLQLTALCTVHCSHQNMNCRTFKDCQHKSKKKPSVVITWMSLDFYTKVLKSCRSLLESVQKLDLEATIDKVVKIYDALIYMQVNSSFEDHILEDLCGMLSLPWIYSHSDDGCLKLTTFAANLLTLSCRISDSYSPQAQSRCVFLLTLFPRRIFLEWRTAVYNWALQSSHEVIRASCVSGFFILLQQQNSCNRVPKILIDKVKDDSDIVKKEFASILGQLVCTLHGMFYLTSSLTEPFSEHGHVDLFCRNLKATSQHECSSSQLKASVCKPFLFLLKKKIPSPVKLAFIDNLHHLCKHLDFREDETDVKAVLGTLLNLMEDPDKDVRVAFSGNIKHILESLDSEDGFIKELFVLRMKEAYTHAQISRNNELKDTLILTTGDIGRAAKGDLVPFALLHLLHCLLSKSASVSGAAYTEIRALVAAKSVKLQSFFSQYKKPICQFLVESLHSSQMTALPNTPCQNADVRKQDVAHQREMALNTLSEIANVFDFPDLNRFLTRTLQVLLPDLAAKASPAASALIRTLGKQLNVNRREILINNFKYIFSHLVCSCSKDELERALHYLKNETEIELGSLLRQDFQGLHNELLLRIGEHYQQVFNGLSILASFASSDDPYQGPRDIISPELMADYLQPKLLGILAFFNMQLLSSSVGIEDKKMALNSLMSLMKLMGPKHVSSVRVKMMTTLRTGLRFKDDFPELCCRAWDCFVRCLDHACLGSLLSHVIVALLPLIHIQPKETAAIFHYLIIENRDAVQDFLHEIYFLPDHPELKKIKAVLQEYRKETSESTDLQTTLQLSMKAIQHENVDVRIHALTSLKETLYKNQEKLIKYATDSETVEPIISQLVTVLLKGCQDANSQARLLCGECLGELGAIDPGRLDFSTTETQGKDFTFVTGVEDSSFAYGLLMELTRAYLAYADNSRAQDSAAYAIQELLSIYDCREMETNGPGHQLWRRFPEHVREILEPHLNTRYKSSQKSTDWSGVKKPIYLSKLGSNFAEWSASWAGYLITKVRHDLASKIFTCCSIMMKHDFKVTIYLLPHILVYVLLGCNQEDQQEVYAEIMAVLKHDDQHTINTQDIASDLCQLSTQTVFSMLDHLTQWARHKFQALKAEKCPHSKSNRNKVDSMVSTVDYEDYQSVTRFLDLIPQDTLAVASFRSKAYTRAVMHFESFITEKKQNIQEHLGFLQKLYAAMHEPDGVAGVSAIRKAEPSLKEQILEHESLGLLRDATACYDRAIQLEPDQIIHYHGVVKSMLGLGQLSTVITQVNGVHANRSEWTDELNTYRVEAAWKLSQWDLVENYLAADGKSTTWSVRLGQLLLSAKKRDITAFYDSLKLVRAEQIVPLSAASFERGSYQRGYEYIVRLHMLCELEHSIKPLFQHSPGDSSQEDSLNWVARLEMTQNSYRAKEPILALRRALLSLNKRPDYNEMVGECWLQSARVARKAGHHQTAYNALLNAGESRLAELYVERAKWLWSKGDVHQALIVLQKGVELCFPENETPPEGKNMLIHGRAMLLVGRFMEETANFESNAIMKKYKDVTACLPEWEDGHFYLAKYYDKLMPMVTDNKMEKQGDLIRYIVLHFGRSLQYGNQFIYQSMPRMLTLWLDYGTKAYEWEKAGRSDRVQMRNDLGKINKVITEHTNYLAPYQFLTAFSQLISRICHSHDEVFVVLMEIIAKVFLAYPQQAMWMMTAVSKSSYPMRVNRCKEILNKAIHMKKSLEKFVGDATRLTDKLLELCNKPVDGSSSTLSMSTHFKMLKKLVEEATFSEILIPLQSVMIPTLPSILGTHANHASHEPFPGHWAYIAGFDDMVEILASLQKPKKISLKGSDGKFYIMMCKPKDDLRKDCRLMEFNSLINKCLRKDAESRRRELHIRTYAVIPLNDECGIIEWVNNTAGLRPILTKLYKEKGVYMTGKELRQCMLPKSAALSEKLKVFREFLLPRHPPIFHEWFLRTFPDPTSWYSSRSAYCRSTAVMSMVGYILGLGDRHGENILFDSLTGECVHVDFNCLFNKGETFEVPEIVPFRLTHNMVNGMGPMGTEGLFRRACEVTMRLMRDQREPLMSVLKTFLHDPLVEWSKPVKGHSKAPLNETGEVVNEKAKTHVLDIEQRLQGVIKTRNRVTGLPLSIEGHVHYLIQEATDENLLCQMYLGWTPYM
T1 sequence (Q8WXE1 whole entry partner): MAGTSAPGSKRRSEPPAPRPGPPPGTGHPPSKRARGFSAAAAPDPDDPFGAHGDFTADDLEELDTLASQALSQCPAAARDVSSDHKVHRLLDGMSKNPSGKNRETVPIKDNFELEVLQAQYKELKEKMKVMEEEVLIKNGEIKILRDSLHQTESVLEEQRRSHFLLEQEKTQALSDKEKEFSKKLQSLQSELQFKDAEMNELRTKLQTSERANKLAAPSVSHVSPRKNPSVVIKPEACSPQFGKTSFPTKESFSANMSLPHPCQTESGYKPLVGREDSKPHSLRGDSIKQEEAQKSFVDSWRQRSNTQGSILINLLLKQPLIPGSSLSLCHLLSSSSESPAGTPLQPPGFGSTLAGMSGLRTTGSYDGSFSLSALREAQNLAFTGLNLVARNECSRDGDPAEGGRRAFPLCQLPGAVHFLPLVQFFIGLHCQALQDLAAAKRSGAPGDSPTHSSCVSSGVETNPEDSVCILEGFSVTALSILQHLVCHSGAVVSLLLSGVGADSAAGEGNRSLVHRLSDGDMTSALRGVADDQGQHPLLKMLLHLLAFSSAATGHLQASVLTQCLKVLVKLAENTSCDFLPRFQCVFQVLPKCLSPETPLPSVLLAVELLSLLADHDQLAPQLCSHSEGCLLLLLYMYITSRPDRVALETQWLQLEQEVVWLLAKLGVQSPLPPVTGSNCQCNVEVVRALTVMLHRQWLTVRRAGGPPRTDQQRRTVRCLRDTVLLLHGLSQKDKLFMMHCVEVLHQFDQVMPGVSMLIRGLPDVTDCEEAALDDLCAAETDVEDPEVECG

For the molecule `C[C@@H]1COC[C@H]2COc3c(nc(-c4ccc5nc(N)ncc5c4)nc3C(C)(C)S(C)(=O)=O)N21` [A78, 6-[(5R,8aS)-1-(1-methanesulfonyl-1-methyl-ethyl)-5-methyl-5,6,8a,9-tetrahydro-8H-7,10-dioxa-2,4,4b-triaza-phenanthren-3-yl]-quinazolin-2-ylamine], the values for the IC50 (at ATR/ATRIP; in experiment [1]) were 0.01 to 0.1 µM and 0.1 to 1 µM, respectively.
The matching figures for `CC(C)Nc1cnc2[nH]ccc2c1-c1nc2c(c(C(C)(C)S(C)(=O)=O)n1)OC[C@@H]1COC[C@@H](C)N21` [A81, isopropyl-{4-[(S)-1-(1-methanesulfonyl-1-methyl-ethyl)-5-(R)methyl-5,6,8a,9-tetrahydro-8H-7,10-dioxa-2,4,4b-triaza-phenanthren-3-yl]-1H-pyrrolo[2,3-b]pyridin-5-yl}-amine]: 0.001 to 0.01 µM and 0.1 to 1 µM.
The corresponding values for `CCNc1cnc2[nH]ccc2c1-c1nc2c(c(C(C)(C)S(C)(=O)=O)n1)OC[C@@H]1COC[C@@H](C)N21` [A90, ethyl-{4-[(S)-1-(1-methanesulfonyl-1-methyl-ethyl)-5-(R)-methyl-5,6,8a,9-tetrahydro-8H-7,10-dioxa-2,4,4b-triaza-phenanthren-3-yl]-1H-pyrrolo[2,3-b]pyridin-5-yl}-amine] are 0.001 to 0.01 µM and 0.01 to 0.1 µM.
The matching figures for `C[C@@H]1COC[C@H]2COc3c(nc(-c4c(O)cnc5[nH]ccc45)nc3C3(S(C)(=O)=O)CC3)N21` [A91, 4-[(5R,8aS)-1-(1-methanesulfonyl-cyclopropyl)-5-methyl-5,6,8a,9-tetrahydro-8H-7,10-dioxa-2,4,4b-triaza-phenanthren-3-yl]-1H-pyrrolo[2,3-b]pyridin-5-ol]: below 0.001 µM and 0.1 to 1 µM.
Regarding `C[C@@H]1COC[C@H]2COc3c(nc(-n4c(NC5COC5)nc5ccccc54)nc3C(C)(C)S(C)(=O)=O)N21` [A93, {1-[(5R,8aS)-1-(1-methanesulfonyl-1-methyl-ethyl)-5-methyl-5,6,8a,9-tetrahydro-8H-7,10-dioxa-2,4,4b-triaza-phenanthren-3-yl]-1H-benzoimidazol-2-yl}-oxetan-3-yl-amine], the IC50 on ATR/ATRIP lay in the range of 0.001 to 0.01 µM; in experiment [1] it was 0.01 to 0.1 µM.
